This is an account of results in patent US12044651B2, “Sensor device and methods” (SCENTIAN BIO LIMITED, priority 2016, dated 2024).

Read-outs that look alike come from different tables or passages of the source. Marks after values point to notes of the source that are not given here.

One test deals with T1, Or22a (Drosophila melanogaster, UniProt P81909).
T1 sequence (P81909 1-397): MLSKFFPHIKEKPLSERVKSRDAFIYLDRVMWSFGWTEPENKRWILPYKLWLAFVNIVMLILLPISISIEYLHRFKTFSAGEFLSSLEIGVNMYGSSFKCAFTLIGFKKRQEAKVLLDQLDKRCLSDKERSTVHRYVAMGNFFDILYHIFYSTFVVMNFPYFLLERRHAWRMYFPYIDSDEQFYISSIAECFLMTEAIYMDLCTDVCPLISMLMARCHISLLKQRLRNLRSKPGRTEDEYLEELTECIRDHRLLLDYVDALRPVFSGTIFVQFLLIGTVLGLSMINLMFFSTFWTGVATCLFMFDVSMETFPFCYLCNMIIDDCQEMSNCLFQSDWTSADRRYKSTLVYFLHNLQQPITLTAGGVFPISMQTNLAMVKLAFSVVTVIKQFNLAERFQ
Briefly: QCM-D sensor with Or22a liposomes (Example 6). Type of test: binding. To be noted: 1.6 to 200 μM. On the procedure: Gold (100 nm) sensor crystals were sonicated in ethanol and milli-Q water for 15 minutes each respectively. A 5:1:1 volume ratio of milli-Q water, ammonia (25%), and hydrogen peroxide (30%) was heated to 75° C. for 5 minutes and the sonicated crystals were placed in the heated solution for 5 minutes. Then the crystals were removed from the solution and rinsed with milli-Q water before drying with nitrogen gas. The clean gold crystals were thiol-functionalized by exposing them to 2 mM ethanolic solution of MHA overnight followed by washing with ethanol solution in order to remove excess or loosely bound molecules.

The target of the next test is T2, DmOr22a/Orco (Drosophila melanogaster, UniProt P81909).
T2 sequence (P81909 1-397): T1 sequence (P81909 1-397)
T2 sequence (Q9VNB5 1-486 partner): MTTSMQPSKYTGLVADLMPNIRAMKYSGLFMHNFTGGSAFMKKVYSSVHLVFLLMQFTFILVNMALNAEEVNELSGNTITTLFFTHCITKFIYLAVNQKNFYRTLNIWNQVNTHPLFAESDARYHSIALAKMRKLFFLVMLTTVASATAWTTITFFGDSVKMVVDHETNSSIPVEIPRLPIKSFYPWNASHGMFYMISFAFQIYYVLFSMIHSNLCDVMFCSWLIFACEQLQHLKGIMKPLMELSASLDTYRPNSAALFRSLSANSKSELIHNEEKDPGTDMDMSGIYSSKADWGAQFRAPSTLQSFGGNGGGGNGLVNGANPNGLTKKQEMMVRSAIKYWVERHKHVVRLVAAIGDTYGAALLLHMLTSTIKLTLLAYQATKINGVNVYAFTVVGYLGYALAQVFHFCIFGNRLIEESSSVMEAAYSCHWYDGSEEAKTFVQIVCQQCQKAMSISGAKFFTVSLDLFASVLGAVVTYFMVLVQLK
The following applies: cited from earlier work; for Sensitivity limit (Log): given as Log, estimated visually from graph.

A word on the EC50: it is the concentration giving half of the maximal effect.

In the case of `CCCCCC(=O)OC` [methyl hexanoate], the “change in oscillation frequency” value on Or22a was “increase in the frequency”. Moreover, the “Sensitivity limit (Log)” value at DmOr22a/Orco (ref 23) is listed as “Log = −7.5*”. On DmOr22a/Orco (ref 24), the EC50 is 1.17 µM and the “Sensitivity limit (Log)” value was “Log = −7*”.
